Laboratory results reported in PMC9518264, “Design and synthesis of novel quinazolinone-based derivatives as EGFR inhibitors with antitumor activity” (Journal of Enzyme Inhibition and Medicinal Chemistry, 2022).

Columns and labels:
HCC-2998 = assay: cells; type: cell-based; conditions: Homo sapiens, HCC 2998, read-out: growth inhibition % (GI%)
PC-3 = assay: cells; type: cell-based; conditions: Homo sapiens, PC-3, read-out: growth inhibition % (GI%)
BT-549 = assay: cells; type: cell-based; conditions: Homo sapiens, BT-549, read-out: growth inhibition % (GI%)
SN12C = assay: cells; type: cell-based; conditions: Homo sapiens, read-out: growth inhibition % (GI%)
CCRF-CEM = assay: cells; type: cell-based; conditions: Homo sapiens, read-out: growth inhibition % (GI%)
SNB-75 = assay: cells; type: cell-based; conditions: Homo sapiens, SNB-75, read-out: growth inhibition % (GI%)
SNB-19 = assay: cells; type: cell-based; conditions: Homo sapiens, SNB-19, read-out: growth inhibition % (GI%)
MOLT-4 = assay: cells; type: cell-based; conditions: Homo sapiens, MOLT-4, read-out: growth inhibition % (GI%)
HCT-15 = assay: cells; type: cell-based; conditions: Homo sapiens, HCT-15, read-out: growth inhibition % (GI%)
MDA-MB-435 = assay: cells; type: cell-based; conditions: Homo sapiens, MDA-MB-435, read-out: growth inhibition % (GI%)
HOP-92 = assay: cells; type: cell-based; conditions: Homo sapiens, HOP-92, read-out: growth inhibition % (GI%)
HT29 = assay: cells; type: cell-based; conditions: Homo sapiens, HT-29, read-out: growth inhibition % (GI%)
IGROV1 = assay: cells; type: cell-based; conditions: Homo sapiens, IGROV-1, read-out: growth inhibition % (GI%)
LOX IMIV = assay: cells; type: cell-based; conditions: Homo sapiens, 60 cell, read-out: growth inhibition % (GI%)
OVCAR-3 = assay: NCI 60 cell line antiproliferative screening (SRB), Ovarian cancer; conditions: Homo sapiens, OVCAR-3, read-out: growth inhibition % (GI%)
T-47D = assay: cells; type: cell-based; conditions: Homo sapiens, T47D, read-out: growth inhibition % (GI%)
OVCAR-8 = assay: cells; type: cell-based; conditions: Homo sapiens, OVCAR-8, read-out: growth inhibition % (GI%)
U251 = assay: cells; type: cell-based; conditions: Homo sapiens, U-251, read-out: growth inhibition % (GI%)
KM12 = assay: cells; type: cell-based; conditions: Homo sapiens, KM12, read-out: growth inhibition % (GI%)
[1] = test system: panel of 60 tumour cell lines; assay: NCI 60 cell line antiproliferative screening (SRB), whole panel or subpanels (means, ranges, words); type: cell-based, human; conditions: Homo sapiens, 60 cell, mean over the cell line panel; 10 μM; read-out: Mean growth inhibition % (mean GI%)
SF-539 = assay: cells; type: cell-based; conditions: Homo sapiens, SF-539, read-out: growth inhibition % (GI%)
HS 578T = assay: cells; type: cell-based; conditions: Homo sapiens, Hs-578T, read-out: growth inhibition % (GI%)
SF-268 = assay: cells; type: cell-based; conditions: Homo sapiens, SF-268, read-out: growth inhibition % (GI%)
OVCAR-4 = assay: cells; type: cell-based; conditions: Homo sapiens, OVCAR-4, read-out: growth inhibition % (GI%)
K-562 = assay: cells; type: cell-based; conditions: Homo sapiens, K562, read-out: growth inhibition % (GI%)
NCI-H522 = assay: cells; type: cell-based; conditions: Homo sapiens, NCI-H522, read-out: growth inhibition % (GI%)
UACC-257 = assay: cells; type: cell-based; conditions: Homo sapiens, UACC-257, read-out: growth inhibition % (GI%)
SK-MEL-2 = assay: cells; type: cell-based; conditions: Homo sapiens, SK-MEL-2, read-out: growth inhibition % (GI%)
NCI/ADR-RES = assay: cells; type: cell-based; conditions: Homo sapiens, read-out: growth inhibition % (GI%)
MALME-3M = assay: cells; type: cell-based; conditions: Homo sapiens, Malme-3M, read-out: growth inhibition % (GI%)
NCI-H322M = assay: cells; type: cell-based; conditions: Homo sapiens, read-out: growth inhibition % (GI%)
COLO-205 = assay: cells; type: cell-based; conditions: Homo sapiens, COLO 205, read-out: growth inhibition % (GI%)
SF-295 = assay: cells; type: cell-based; conditions: Homo sapiens, SF-295, read-out: growth inhibition % (GI%)
SR = assay: cells; type: cell-based; conditions: Homo sapiens, read-out: growth inhibition % (GI%)
MCF7 = assay: cells; type: cell-based; conditions: Homo sapiens, MCF7, read-out: growth inhibition % (GI%)
NCI-H226 = assay: cells; type: cell-based; conditions: Homo sapiens, NCI-H226, read-out: growth inhibition % (GI%)
NCI-H460 = assay: cells; type: cell-based; conditions: Homo sapiens, NCI-H460, read-out: growth inhibition % (GI%)
SK-OV-3 = assay: cells; type: cell-based; conditions: Homo sapiens, SK-OV-3, read-out: growth inhibition % (GI%)
EKVX = assay: cells; type: cell-based; conditions: Homo sapiens, read-out: growth inhibition % (GI%)
A498 = assay: cells; type: cell-based; conditions: Homo sapiens, A498, read-out: growth inhibition % (GI%)
TK-10 = assay: cells; type: cell-based; conditions: Homo sapiens, TK-10, read-out: growth inhibition % (GI%)
HCT-116 = assay: cells; type: cell-based; conditions: Homo sapiens, HCT-116, read-out: growth inhibition % (GI%)
UO-31 = assay: cells; type: cell-based; conditions: Homo sapiens, UO-31, read-out: growth inhibition % (GI%)
UACC-62 = assay: cells; type: cell-based; conditions: Homo sapiens, UACC-62, read-out: growth inhibition % (GI%)
RPMI-8226 = assay: cells; type: cell-based; conditions: Homo sapiens, RPMI-8226, read-out: growth inhibition % (GI%)
SK-MEL-5 = assay: cells; type: cell-based; conditions: Homo sapiens, SK-MEL-5, read-out: growth inhibition % (GI%)
A549/ATCC = assay: cells; type: cell-based; conditions: Homo sapiens, A549, read-out: growth inhibition % (GI%)

Q: O=C(CSc1nc2ccccc2c(=O)n1-c1ccc(Cl)cc1)NN=Cc1ccc(N2CCCCC2)cc1 [6j, 2-((3–(4-chlorophenyl)-4-oxo-3,4-dihydroquinazolin-2-yl)thio)-N'-(4-(piperidin-1-yl)benzylidene) acetohydrazide] was tested. Which inhibition at 10 µM (HCC-2998) did it give?
A: Its inhibition at 10 µM is under 15%.

Q: What about the inhibition at 10 µM (PC-3) of the same compound?
A: Its inhibition at 10 µM is 21.4%.

Q: What about the inhibition at 10 µM (BT-549) of the same compound?
A: The inhibition at 10 µM was under 15%.

Q: What about the inhibition at 10 µM (SN12C) of the same compound?
A: The inhibition at 10 µM was 37.6%.

Q: And the inhibition at 10 µM (CCRF-CEM)?
A: The inhibition at 10 µM was under 15%.

Q: And the inhibition at 10 µM (SNB-75)?
A: Its inhibition at 10 µM is 20.1%.

Q: What about the inhibition at 10 µM (SNB-19) of the same compound?
A: Its inhibition at 10 µM is 56.8%.

Q: What about the inhibition at 10 µM (MOLT-4) of the same compound?
A: Its inhibition at 10 µM is under 15%.

Q: And the inhibition at 10 µM (HCT-15)?
A: The inhibition at 10 µM was 32.2%.

Q: What about the inhibition at 10 µM (MDA-MB-435) of the same compound?
A: The inhibition at 10 µM was under 15%.

Q: And the inhibition at 10 µM (HOP-92)?
A: Its inhibition at 10 µM is 37.7%.

Q: What about the inhibition at 10 µM (HT29) of the same compound?
A: Its inhibition at 10 µM is 39.1%.

Q: And the inhibition at 10 µM (IGROV1)?
A: Its inhibition at 10 µM is 44.5%.

Q: And the inhibition at 10 µM (LOX IMIV)?
A: The inhibition at 10 µM was 56.5%.

Q: And the inhibition at 10 µM (OVCAR-3)?
A: The inhibition at 10 µM was 67.2%.

Q: And the inhibition at 10 µM (T-47D)?
A: Its inhibition at 10 µM is 25.4%.

Q: And the inhibition at 10 µM (OVCAR-8)?
A: Its inhibition at 10 µM is 34.7%.

Q: And the inhibition at 10 µM (U251)?
A: The inhibition at 10 µM was 49.4%.

Q: And the inhibition at 10 µM (KM12)?
A: Its inhibition at 10 µM is 3.59%.

Q: And the inhibition at 10 µM [1]?
A: Its inhibition at 10 µM is 34.2%.

Q: And the inhibition at 10 µM (SF-539)?
A: Its inhibition at 10 µM is 58.7%.

Q: And the inhibition at 10 µM (HS 578T)?
A: The inhibition at 10 µM was 62.1%.

Q: And the inhibition at 10 µM (SF-268)?
A: The inhibition at 10 µM was 65.3%.

Q: And the inhibition at 10 µM (OVCAR-4)?
A: Its inhibition at 10 µM is 41.4%.

Q: And the inhibition at 10 µM (K-562)?
A: The inhibition at 10 µM was 26.4%.

Q: And the inhibition at 10 µM (NCI-H522)?
A: Its inhibition at 10 µM is under 15%.

Q: And the inhibition at 10 µM (UACC-257)?
A: The inhibition at 10 µM was under 15%.

Q: What about the inhibition at 10 µM (SK-MEL-2) of the same compound?
A: The inhibition at 10 µM was under 15%.

Q: And the inhibition at 10 µM (NCI/ADR-RES)?
A: The inhibition at 10 µM was 60.1%.

Q: What about the inhibition at 10 µM (MALME-3M) of the same compound?
A: Its inhibition at 10 µM is 35.8%.

Q: And the inhibition at 10 µM (NCI-H322M)?
A: Its inhibition at 10 µM is 23%.

Q: And the inhibition at 10 µM (COLO-205)?
A: Its inhibition at 10 µM is 17.9%.

Q: What about the inhibition at 10 µM (SF-295) of the same compound?
A: Its inhibition at 10 µM is 23.6%.

Q: What about the inhibition at 10 µM (SR) of the same compound?
A: Its inhibition at 10 µM is 25.2%.

Q: And the inhibition at 10 µM (MCF7)?
A: Its inhibition at 10 µM is 32.5%.

Q: What about the inhibition at 10 µM (NCI-H226) of the same compound?
A: The inhibition at 10 µM was 61.8%.

Q: And the inhibition at 10 µM (NCI-H460)?
A: Its inhibition at 10 µM is 90.3%.

Q: And the inhibition at 10 µM (SK-OV-3)?
A: The inhibition at 10 µM was 69.9%.

Q: And the inhibition at 10 µM (EKVX)?
A: The inhibition at 10 µM was 17.9%.

Q: And the inhibition at 10 µM (A498)?
A: Its inhibition at 10 µM is 21.5%.

Q: And the inhibition at 10 µM (TK-10)?
A: Its inhibition at 10 µM is under 15%.

Q: And the inhibition at 10 µM (HCT-116)?
A: The inhibition at 10 µM was 63.1%.

Q: What about the inhibition at 10 µM (UO-31) of the same compound?
A: The inhibition at 10 µM was 47%.

Q: And the inhibition at 10 µM (UACC-62)?
A: The inhibition at 10 µM was 26.5%.

Q: What about the inhibition at 10 µM (RPMI-8226) of the same compound?
A: Its inhibition at 10 µM is under 15%.

Q: What about the inhibition at 10 µM (SK-MEL-5) of the same compound?
A: The inhibition at 10 µM was under 15%.

Q: And the inhibition at 10 µM (A549/ATCC)?
A: Its inhibition at 10 µM is 50.6%.
